In patent US20240101548A1, “HYDROXAMATE COMPOUND, PREPARATION METHOD THEREFOR AND APPLICATION THEREOF” (SHENZHEN CHIPSCREEN BIOSCIENCES CO., LTD., priority 2020, published 2024):

Legend:
Type in all cases: cell-based, human
[1] = test system: IL-10-induced JAK1/TYK2 signal pathway; test: IL-10-induced JAK1/TYK2 signal pathway STAT3-Luc reporter gene assay in U2OS cells; settings: Homo sapiens, U2OS, U2OS cells, STAT3-Luc reporter, IL-10 10 ng/mL; read-out: Half inhibition dose (IC50) on IL-10-induced JAK1/TYK2 signal pathway
Text: Cytokine IL-10 is one of the main members of IL-10 family. The receptor that cytokine IL-10 binds to consists of two kinds of subunits, i.e., IL-10R1 and IL-10R2, which respectively couple with JAK1 and TYK2. After the coupling of IL-10 with its receptor, interaction of phosphorylation occurs between JAK1 and TYK2 to form STAT3 docking site for phosphorylation of STAT3. The phosphorylated STAT3 enters the nucleus and drives the transcription and expression of downstream genes.
The reporter gene plasmid STAT3-Luc Reporter used in the present invention has luciferase expression sequence as the reporter gene, upstream of which is a promoter sequence containing multiple STAT3 binding sites. When phosphorylated STAT3 induced by IL-10 signal pathway binds to the promoter of STAT3-Luc Reporter plasmid, luciferase is transcribed and expressed. The excitation fluorescence catalyzed by Luciferase can be detected after the addition of […] substrate, whose intensity can quantitively reflect the activation level of the signal pathway.
Human osteosarcoma cell line U20S was commercially available from American Type Culture Collection (ATCC), and relevant culture conditions referred to those from ATCC. It was known that such cell line could express IL-10R2, JAK1, TYK2 and STAT3, therefore, by exogenous expression of IL-10R1 gene, a complete IL-10 signal pathway could be established. The human IL-10R1 subunit overexpression plasmid pCMV3-IL10RA-EGFP was constructed by Shanghai Genechem Co., Ltd., and capable of simultaneously expressing enhanced green fluorescent protein. In the subsequent detection and calculation, the signal of green fluorescent protein in the tested sample was used as a reference for transfection efficiency calibration of the luciferase reporter gene signal. Reporter plasmid STAT3-Luc Reporter was commercially available from Ji Man Biotech (Shanghai) Co., Ltd.
X-tremeGENE 9 DNA Transfection Reagent (Roche) was used for the transfection of plasmid DNA into cells, Cell Culture Lysis 5× reagent (Promega) and Luciferase Assay System (Promega) were used in cell lysate preparation and enzyme-substrate reaction for luciferase reporter gene detection. Green fluorescent protein signal and luciferase reporter gene signal were both detected by Tecan Spark™ 10M multimode microplate reader. The inhibition rate of the tested compound on the IL-10 signal pathway reporter gene signal and the half inhibition dose IC50 were both calculated using Microsoft Excel and GraphPad Prism 7.00 software.
U2OS cell line was inoculated in 96-well plate with flat bottom at 5000 cells per well, and cultured overnight at 37° C. and 5% CO2 followed by plasmid transfection. Following the instructions and using X-tremeGENE 9 DNA Transfection Reagent, pCMV3-IL10RA-EGFP and STAT3-Luc Reporter plasmids were co-transfected into the inoculated U2OS cells. After 24 hours of transfection, the tested compound was added respectively for a final concentration of 0, 0.1, 0.3, 1, 3, 10, 30, 100, or 300 nM. After 6 hours of culture at 37° C. and 5% CO2, IL-10 cytokine (Human IL-10 PEPROTECH 200-10-10UG) was added to each well for a final concentration of 10 ng/mL, the well in which neither compound nor cytokine was added was designated as 0% control well. The culture was continued for 24 hours before testing.
Cell lysate was prepared by using Cell Culture Lysis reagent and transferred to 96-well plate with half-well clear bottom. The green fluorescent protein signal value was detected at Ex485/Em520 using Tecan microplate reader, and recorded. After adding to each well the luciferase substrate from Luciferase Assay System, the signal value of luciferase-substrate reaction was immediately detected at 560 nm using Tecan microplate reader, and recorded.
Using Microsoft Excel software, the signal value of luciferase-substrate reaction of each well was calculated and calibrated based on the signal value of green fluorescent protein of each well. […]

[2] = test system: IL-2-induced JAK1/JAK3 signal pathway; test: IL-2-induced proliferation of KHYG-1 cells (JAK1/JAK3 signal); settings: Homo sapiens; KHYG-1 cell proliferation, IL-2 10 ng/mL, 72 hours; read-out: Inhibition activity IC50 on IL-2-induced JAK1/JAK3 signal pathway
Summary of the method: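 KHYG-1 NK lymphoma cells were cultured with IL-2 and test compound at various doses for 72 h at 37 °C and 5% CO2, and proliferation was read with alamarBlue fluorescence. Inhibition was normalized to wells without compound or cytokine (0%) and IL-2 wells without compound (100%), and C50 was derived from the dose-inhibition data.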

[3] = test system: EPO-induced JAK2 signal pathway; test: EPO-induced proliferation of UT-7 cells (JAK2 signal); settings: Homo sapiens, UT7; UT-7 cell proliferation, EPO 10 ng/mL, 72 hours; read-out: Inhibition activity IC50 on EPO-induced JAK2 signal pathway
Summary of the method: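 UT-7 cells (15000/well) stimulated with 10 ng/mL human recombinant EPO plus compound at final 0, 100, 1000 or 10000 nM, 72 h at 37° C., 5% CO2. Proliferation by alamarBlue fluorescence (Ex530/Em590); inhibition normalised to no-cytokine/no-compound (0) and EPO-only (100) wells, […] derived from dose-inhibition.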

Compound: CCONC(=O)c1cnc(Nc2ccc(F)nc2)cc1Nc1ccc(C2CC2)cc1N(C)S(C)(=O)=O [Example 237, 4-((4-cyclopropyl-2-(N-methylmethanesulfonamido)phenyl)amino)-N-ethoxy-6-((6-fluoropyridin-3-yl)amino)nicotinamide]
- IC50 [1]: 0.000395 µM
- IC50 [2]: > 10 µM
- IC50 [3]: > 10 µM

Compound: CCONC(=O)c1cnc(Nc2cccnn2)cc1Nc1ccc(Cl)cc1N(C)S(C)(=O)=O [Example 151, 4-((4-chloro-2-(N-methylmethanesulfonamido)phenyl)amino)-N-ethoxy-6-(pyridazin-3-ylamino)nicotinamide]
- IC50 [1]: 0.00207 µM
- IC50 [2]: > 10 µM
- IC50 [3]: > 10 µM

Compound: CCONC(=O)c1cnc(Nc2cc(C)nc(C)n2)cc1Nc1ccc(Cl)cc1N(C)S(=O)(=O)CC [Example 187, 4-((4-chloro-2-(N-methylethylsulfonamido)phenyl)amino)-6-((2,6-dimethylpyrimidin-4-yl)amino)-N-ethoxynicotinamide]
- IC50 [1]: 0.000906 µM
- IC50 [2]: > 10 µM
- IC50 [3]: > 10 µM

Compound: CCONC(=O)c1cnc(Nc2ncc(F)cc2F)cc1Nc1cc(F)cc(-c2ncc(F)cn2)c1OC [Example 234, 6-((3,5-difluoropyridin-2-yl)amino)-N-ethoxy-4-((5-fluoro-3-(5-fluoropyrimidin-2-yl)-2-methoxyphenyl)amino)nicotinamide]
- IC50 [1]: 0.000368 µM
- IC50 [2]: > 10 µM
- IC50 [3]: > 10 µM

Compound: CP(C)(=O)c1ccccc1Nc1cc(NC(=O)C2CC2)ncc1C(N)=O [Example 93, 6-(cyclopropylcarboxamido)-4-((2-(dimethylphosphoryl)phenyl)amino)nicotinamide]
- IC50 [1]: 0.279 µM
- IC50 [2]: > 10 µM
- IC50 [3]: > 10 µM

Compound: CCONC(=O)c1cnc(Nc2ccc(C#N)cn2)cc1Nc1ccc(C2CC2)cc1N(C)S(C)(=O)=O [Example 126, 6-((5-cyanopyridin-2-yl)amino)-4-((4-cyclopropyl-2-(N-methylmethanesulfonamido)phenyl)amino)-N-ethoxy nicotinamide]
- IC50 [1]: 0.000702 µM
- IC50 [2]: > 10 µM
- IC50 [3]: > 10 µM

Compound: CONC(=O)c1cnc(Nc2cccc(F)n2)cc1Nc1cccc(F)c1N(C)S(C)(=O)=O [Example 38, 4-((3-fluoro-2-(N-methylmethanesulfonamido)phenyl)amino)-6-((6-fluoropyridin-2-yl)amino)-N-methoxy nicotinamide]
- IC50 [1]: 0.000506 µM
- IC50 [2]: > 10 µM
- IC50 [3]: > 10 µM

Compound: CCONC(=O)c1cnc(Nc2cc(C)nc(C)n2)cc1Nc1ccc(N2CCOCC2)cc1N(C)S(C)(=O)=O [Example 134, 6-((2,6-dimethylpyrimidin-4-yl)amino)-N-ethoxy-4-((2-(N-methylmethanesulfonamido)-4-morpholinophenyl)amino)nicotinamide]
- IC50 [1]: 0.00277 µM
- IC50 [2]: > 10 µM
- IC50 [3]: > 10 µM

Compound: CCONC(=O)c1cnc(Nc2cc(C)nc(C)n2)cc1Nc1ccc(C)cc1N(C)S(=O)(=O)CC [Example 203, 6-((2,6-dimethylpyrimidin-4-yl)amino)-N-ethoxy-4-((4-methyl-2-(N-methylethylsulfonamido)phenyl)amino)nicotinamide]
- IC50 [1]: 0.000383 µM
- IC50 [2]: > 10 µM
- IC50 [3]: > 10 µM

Compound: CONC(=O)c1cnc(Nc2cccc(C)n2)cc1Nc1ccccc1N(C)S(C)(=O)=O [Example 102, N-methoxy-4-((2-(N-methylmethanesulfonamido)phenyl)amino)-6-((6-methylpyridin-2-yl)amino)nicotinamide]
- IC50 [1]: 0.000623 µM
- IC50 [2]: > 10 µM
- IC50 [3]: > 10 µM

Compound: CCONC(=O)c1cnc(Nc2ccc(C)nn2)cc1Nc1cc(F)c(C2CC2)cc1N(C)S(C)(=O)=O [Example 176, 4-((4-cyclopropyl-5-fluoro-2-(N-methylmethanesulfonamido)phenyl)amino)-N-ethoxy-6-((6-methylpyridazin-3-yl)amino)nicotinamide]
- IC50 [1]: 0.00232 µM
- IC50 [2]: > 10 µM
- IC50 [3]: > 10 µM
